Data: publication PMC4211885 (PLoS ONE, 2014)
“Also recorded” adds a separate entry of the source. Where two headings read alike, the source gives them in different places.

What was measured:
OA/TAMac receptor [1] = molecular target: T1, OA/TAMac receptor (Macrobrachium rosenbergii, UniProt D9U2B9); experiment: Agonist-evoked direct-current (ID) in Xenopus oocytes injected with OA/TAMac cRNA, two-electrode voltage clamp; type: cell-based; conditions: for Amplitude of agonist evoked ID relative to octopamine-evoked current: all agonists at 50 µM, within single oocytes
T1 sequence (D9U2B9 entry or part of it): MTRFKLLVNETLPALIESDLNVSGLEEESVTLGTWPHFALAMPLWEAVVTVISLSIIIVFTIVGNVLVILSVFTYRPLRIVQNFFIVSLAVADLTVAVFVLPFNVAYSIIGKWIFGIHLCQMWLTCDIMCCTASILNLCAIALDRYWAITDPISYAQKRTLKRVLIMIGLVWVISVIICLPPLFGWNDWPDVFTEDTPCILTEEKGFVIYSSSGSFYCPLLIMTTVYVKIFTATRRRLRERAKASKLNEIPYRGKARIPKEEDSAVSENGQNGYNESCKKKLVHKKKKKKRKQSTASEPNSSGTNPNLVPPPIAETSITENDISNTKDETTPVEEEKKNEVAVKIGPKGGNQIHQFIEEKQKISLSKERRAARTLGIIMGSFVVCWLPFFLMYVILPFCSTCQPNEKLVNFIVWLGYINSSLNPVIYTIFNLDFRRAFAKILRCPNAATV
From the text: We used Xenopus oocytes to express the prawn OA/TAMac receptor by injection of synthetic cRNA. The injection of foreign RNA into Xenopus oocytes typically induces the expression of multiple native chloride and potassium channels. Ligand evoked currents resulting from modulation of these channels have been used extensively in the characterization of heterologously expressed GPCRs. Oocytes are typically voltage clamped at a constant membrane potential around −60 mV and deviations in holding potential are measured. We refer to currents measured in this way as direct-currents (ID) (after) in order to distinguish them from the voltage-evoked transient current (ICl-T) described later.
Both flow rate and pulse duration were precisely controlled and comparisons were made relative to currents within single oocytes.
To characterize the dose dependence of ID, series of single transmitters were applied to different individual oocytes injected with OA/TAMac. Oocytes were voltage clamped at −60 mV and tyramine, (+/−)-octopamine, or dopamine were applied using 30 second perfusion-switched applications (see methods for more details).
(§1) Recordings were performed 1–3 days post-injection at room temperature (20–22°C). Currents were recorded under two-electrode voltage clamp using an Axoclamp 900a amplifier (Molecular Devices LLC, CA USA). A digidata 1440a analog to digital converter was used in conjunction with pCLAMP 10 software (Molecular Devices) for data acquisition and to generate voltage commands. For each step protocol or chemical application data were typically sampled at 5 KHz and filtered digitally at 1 KHz. For the duration of each experiment the current was also continuously sampled at 1 kHz using a separate minidigi 1A digitizer (Molecular Devices). Glass microelectrodes were pulled from filamented 1.2 mm thin wall borosilicate glass (World Precision Instruments, Sarasota, FL) using a Sutter Instruments P-97 puller. They were filled with 3 M KCl and had resistances of 0.8–2.0 MΩ. A silver chloride pellet immersed in 3 M KCl and connected to the bath via a 3% agar bridge made with 3 M KCl was used as the reference electrode.
Oocytes were continuously perfused at 1.5 mL/min either with ND 96 or test compounds dissolved in ND 96. Two types of application were used over the course of this study, a perfusion-switch or a focal application. In all cases solutions were delivered through a gravity fed system and switched using a computer controlled bank of pinch valves. Flow rate was regulated with a manual screw-type pinch valve.
For focal application a triple barrel pipette with three parallel independently switched channels was positioned about 1 mm from the surface of the oocyte, up-stream of a cross flow, at an approximate angle of 45 degrees (schematic shown in Fig. S8). Drugs were focally applied during continuous perfusion with ND 96.
(§2) In experiments where more than three drugs or concentrations were tested a precisely controlled 30 s perfusion-switch was used. Up to eight channels were connected to the bath via an 8-way manifold. There was an approximately 6–7 s delay for solutions to traverse the dead volume between the manifold and the bath.

[2] = test system: CFTR conductance (intracellular cAMP); experiment: cAMP detection by whole oocyte (CFTR) conductance in oocytes co-expressing CFTR and OA/TAMac; type: cell-based, Xenopus laevis; conditions: FSK at 50 µM
From the text: It is also unlikely that the effects of tyramine at high concentration result from an increase in cAMP. It is common that octopaminergic GPCRs can couple through the canonical Gαs/cAMP pathway so we used co-expression of the Cystic Fibrosis Trans-membrane Conductance Regulator (CFTR) as a means of testing for increases in cAMP (see methods for more detail) [60]–[63].
As a means of detecting rises in intracellular cAMP levels we tested oocytes co-expressing the CFTR channel and OA/TAMac. Heterologously expressed CFTR can be used as an extremely sensitive assay for intracellular cAMP in Xenopus oocytes. CFTR mediates a chloride-selective leak conductance that is activated by increases in intracellular cAMP [63]. Activity of CFTR can thus be used to indicate whether changes in cAMP correspond with ligand application [60]–[62]. Whole oocyte conductance was monitored using a step protocol and calculated from I/V plots. The command voltage was stepped from the holding potential to various levels (−10 mV to −55 mV in −5 mV increments) for 150 ms. The steady state current during each step was plotted against the command voltage and fit to a line using Clampfit 10 software (Fig. S7A). The slope of the line was taken as the conductance. To minimize the magnitude of the holding current between drug applications, oocytes expressing CFTR were typically held at −20 mV which is close to the typical chloride reversal potential. This was confirmed by the fact that the direct-current evoked by forskolin could appear inward or outward at −20 mV. Oocytes expressing either OA/TAMac alone or OA/TAMac and CFTR typically had resting membrane potentials between −20 mV and −30 mV (mean of −26±5 mV calculated from oocytes in Fig. S7) due to increased expression of endogenous chloride currents.
(A) The measurement of whole oocyte conductance was done by plotting steady state current against the command voltage recorded during a step protocol. It is defined as the slope (I/V) of the linear least squares regression line. In the example shown tyramine (TA) causes no apparent change in whole oocyte conductance. Octopamine (OA) causes a small change compared to the adenylate cyclase activator forskolin (FSK). […] These cumulative data are from 20 OA/TAMac and CFTR-injected oocytes and 6 OA/TAMac -only injected oocytes. Conductance was measured as shown in A. Not all compounds were tested in all oocytes. Each response is treated as an independent sample. Concentrations of OA and TA were at 100 µM or 1000 µM, FSK was at 50 µM. Some points obtained at 3 minutes were grouped with the 4 minute responses. (C) The change in conductance (Δg) occurring within oocytes as determined by the difference between baseline and the indicated time points post-application of compound. […]

OA/TAMac receptor [3] = molecular target: T1, OA/TAMac receptor; experiment: Antagonist block of ID evoked by 50 µM octopamine in OA/TAMac-injected oocytes; type: cell-based
Procedure: as §1, §2

Uninjected oocytes = experiment: Direct-current response of uninjected oocytes (control); type: cell-based, Xenopus laevis; conditions: n = 5
Procedure: We first tested receptor-injected oocytes for the occurrence of a response to biogenic amines. Applications of tyramine, octopamine, or dopamine produced an inward ID, typically ranging between 50 nA and 500 nA, under a constant holding potential of −60 mV. […] The amplitude of tyramine evoked ID at concentrations below 10 µM was greater than octopamine or dopamine within the same oocyte (Figs. 2A and S2). […] Instead it would rise and then begin to decline prior to the removal of agonist (dotted line). However, at high concentrations, above 100 µM, ID appeared to approach a stable plateau (Fig. 2B).
as §1
Supplementary file pone.0111314.s001.tif: Figure S1 Direct-current (ID) responses are specifically evoked by agonists in oocytes injected with OA/TAMac only. […] The trace is representative of an experimental set of 5 oocytes. Additional uninjected oocytes were tested with various experimental sets throughout the course of this study. (B) A typical preliminary test of agonist sensitivity. Injection of OA/TAMac cRNA alone is sufficient to confer sensitivity to OA. […] Applications are approximately 30 seconds in the upper trace. (C) The response of clonidine (CN), synephrine (SN), and OA within a single OA/TAMac injected oocyte. […] All drugs are applied for 30 seconds each as indicated by black rectangles. Agonist evoked currents are measured within oocytes relative to the octopamine response at 50 µM. The comparison is made to OA because the amplitude of the tyramine response becomes small at concentrations above 10 µM. This is due to a mechanistically undefined process not seen with any other agonist we tested. Note that TA is the first compound applied to a naïve oocyte in this example. […] (TIF) Click here for additional data file.

[4] = Solubility limit in ND 96 when preparing test solutions; type: physicochemical; conditions: ND 96, from methanol stock
Procedure: Compounds were obtained from Sigma and dissolved in ND96 or calcium free ND 96 (96 mM NaCl, 2 mM KCl, 5 mM MgCl2, 0.1 mM EGTA, and 5 mM HEPES, pH 7.6), unless stated otherwise. […] SQ-22536 was prepared as a 0.1 M stock in water. Yohimbine was dissolved in acidic ND 96 to 1 mM, before being serially diluted at pH 7.6. Forskolin was prepared as a 0.05 M stock in DMSO. Thapsigargin was prepared as a 0.01 M stock in DMSO. (−)-Quinpirol was made as a 0.01 M stock in ND96 and stored in aliquots at −20°C. […] For all antagonists serial dilutions were made in ND 96 containing 50 µM octopamine and applied as a mixture.

[5] = antagonist applied as mixture with 50 µM octopamine, 30 second perfusion-switch, −60 mV, estimated graphically, read-out: IC50 for block of octopamine-evoked ID

Compound: CNCC(O)c1ccc(O)cc1 (racemic) [(+/−)-synephrine]
- Amplitude of agonist evoked ID relative to octopamine-evoked current (OA/TAMac receptor [1]; 30 second perfusion-switch): smaller currents than octopamine or β-PEA

Compound: CCCN1CCC[C@@H]2Cc3n[nH]cc3C[C@H]21 [(−)-quinpirole]
- Amplitude of agonist evoked ID relative to octopamine-evoked current (OA/TAMac receptor [1]; 30 second perfusion-switch): smaller currents than octopamine or β-PEA
- Amplitude of agonist evoked ID relative to octopamine-evoked current (OA/TAMac receptor [1]; 30 second perfusion-switch, listed as quinpirole): produces a response in injected oocytes and not in uninjected oocytes

Compound: Clc1cccc(Cl)c1N=C1NCCN1 [Clonidine]
- Amplitude of agonist evoked ID relative to octopamine-evoked current (OA/TAMac receptor [1]; 30 second perfusion-switch): no visible response

Compound: C=C[C@@]1(C)CC(=O)[C@]2(O)[C@@]3(C)[C@@H](O)CCC(C)(C)[C@@H]3[C@H](O)[C@H](OC(C)=O)[C@@]2(C)O1 [FSK, forskolin]
- Evoked whole oocyte conductance [2]: significantly larger conductance than baseline or TA

Compound: CN1CCc2cc(Cl)c(O)cc2[C@@H](c2ccccc2)C1 [SCH-23390]
- IC50 (OA/TAMac receptor [3]; [5]): ~9.6 µM

Compound: Nc1ncnc2c1ncn2C1CCCO1 (stereo not drawn) [SQ-22536]
- Effect of adenylate cyclase inhibitor on amine evoked ID (OA/TAMac receptor [1]; tyramine n = 3, octopamine n = 6): no apparent effect; also recorded: no obvious effect

Compound: NCCc1ccc(O)c(O)c1 [dopamine]
- ID response amplitude (mean ± s.d.) (OA/TAMac receptor [1]; 10 µM, 10 second focal application, −60 mV, OA/TAMac and CFTR co-injected, n = 11 oocytes): 46±31 nA
- EC50 (OA/TAMac receptor [1]; 30 second perfusion-switch, voltage clamped at −60 mV, approximate, estimated graphically from plot, read-out: EC50 of transmitter evoked direct-current (ID), normalized I/Imax): ~63 µM
- Concentration at which evoked inward currents became visible/apparent (OA/TAMac receptor [1]; 30 second perfusion-switched applications, −60 mV): around 1 µM
- Spearman rank-order correlation (rS) between rise rate and peak amplitude of evoked ID (OA/TAMac receptor [1]; all responses of the concentration series of Figure 3C): 0.97
- Response of uninjected oocytes (Uninjected oocytes): no response
- Response of uninjected oocytes (Uninjected oocytes; listed as DA): do not respond

Compound: NC1=NCC2c3ccccc3Cc3ccccc3N12 (stereo not drawn) [epinastine]
- IC50 (OA/TAMac receptor [3]; [5]): ~3.7 µM

Compound: O=C(CCCN1CCC(O)(c2ccc(Cl)cc2)CC1)c1ccc(F)cc1 [haloperidol]
- Limit of solubility [4]: could not be tested at 100 µM because of its limit of solubility

Compound: NCCc1c[nH]cn1 [histamine]
- Amplitude of agonist evoked ID relative to octopamine-evoked current (OA/TAMac receptor [1]; 30 second perfusion-switch): no response or minimal response
- Amplitude of agonist evoked ID relative to octopamine-evoked current (OA/TAMac receptor [1]; 30 second perfusion-switch, listed as Histamine): minimal response

Compound: Cc1ccc(N(CC2=NCCN2)c2cccc(O)c2)cc1 [phentolamine]
- IC50 (OA/TAMac receptor [3]; [5]): ~0.98 µM

Compound: C/C=C(/C)C(=O)O[C@H]1C(C)=C2[C@H]([C@@H]1OC(=O)CCCCCCC)[C@@](C)(OC(C)=O)C[C@H](OC(=O)CCC)[C@@]1(O)[C@H]2OC(=O)[C@@]1(C)O [thapsigargin]
- Effect of pre-incubation on tyramine-induced ID waveform (OA/TAMac receptor [1]; 1.7 µM in calcium-free ND 96 for three hours, n = 2): no apparent effect on the tyramine induced plateau

Compound: COC(=O)[C@@H]1[C@H]2C[C@H]3c4[nH]c5ccccc5c4CCN3C[C@@H]2CC[C@@H]1O [yohimbine]
- IC50 (OA/TAMac receptor [3]): ~0.48 µM

Compound: NCCc1ccccc1 [β-phenylethylamine]
- Amplitude of agonist evoked ID relative to octopamine-evoked current (OA/TAMac receptor [1]; 30 second perfusion-switch): comparable or greater amplitude than octopamine
